This note sets out measurements from patent US20210253562A1, “ACYLSUFONAMIDE COMPOUNDS USEFUL AS EP3 RECEPTOR ANTAGONISTS” (Janssen Pharmaceutica NV, priority 2018, published 2021).

Like-named read-outs stand apart in the source and are kept apart here.

The target of the assay is T1, EP3 membrane (EP3 receptor) (Homo sapiens, UniProt P43115).
T1 construct: purchased Millipore HTS092M
T1 sequence (P43115 1-390): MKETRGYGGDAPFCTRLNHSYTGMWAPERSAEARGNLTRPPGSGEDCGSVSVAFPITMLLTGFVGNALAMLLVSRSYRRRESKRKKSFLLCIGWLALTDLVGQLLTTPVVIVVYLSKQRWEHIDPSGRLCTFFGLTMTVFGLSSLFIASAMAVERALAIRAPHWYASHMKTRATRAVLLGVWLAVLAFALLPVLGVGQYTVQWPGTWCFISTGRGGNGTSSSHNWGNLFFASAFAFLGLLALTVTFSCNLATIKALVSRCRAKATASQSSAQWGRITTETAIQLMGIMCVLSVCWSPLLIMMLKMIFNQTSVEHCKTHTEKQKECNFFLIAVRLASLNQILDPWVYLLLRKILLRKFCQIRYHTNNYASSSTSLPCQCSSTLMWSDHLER
Nature of the assay: [3H]-PGE2 binding; EP3 competition binding (SPA). As to the method:
Biological Example 1: [3H]-PGE2 Binding
EP3 competition binding was determined using the following materials and experimental conditions: • Beads=Perkin Elmer RPNQ0001 • [3H]PGE2=Perkin Elmer NET428025UC • 384-well plate=Perkin Elmer 6007290 • EP3 membrane=Millipore HTS092M • Membrane concentration=2 μg/well • Beads concentration=0.25 mg/well • [3H]-PGE2=2 nM; DMSO—0.1% • Binding buffer=50 mM Tris, 10 mM MgCl2, 1 mM EDTA, PH 7.4.
The reaction system was prepared by mixing 5 μl of unlabeled compound; 5 μl of diluted [3H]-PGE2; 5 μl of diluted membrane; and 15 μl of SPA beads dissolved in binding buffer (adding in the following sequence: Unlabeled compound, [3H]-PGE2, Membrane and Beads).
The binding buffer was removed from refrigeration (@ 4° C.) and allowed to warm to room temperature. Test compound (@ stock concentration of […] in DMSO) was serial dilutes (1:3) with 100% DMSO using Echo plate. Diluted test compound (30 nL) was dispensed to the 384-well assay plate (using Echo 550 Labcyte System). To each well was then added assay buffer (5 μl) and each well was spun. Beads were weighed out, dissolved in assay buffer to a concentration of 0.25 mg/15 μl. Original membrane was diluted with assay buffer to a concentration of 2 μg/5 μl. Original [3H]-PGE2 with diluted with assay buffer to a concentration of 12 nM. To each test well were then added diluted [3H]-PGE2 (5 μl), diluted membrane (5 μl), and dissolved beads (15 μl). The plate was equilibrated at room temperature on a plate shaker for 2 hours and then read with a TOPCOUNT scintillation plate reader. Results were analyzed using a Prism program with non-linear regression, one-site fit for Ki.

For orientation: Ki means a measure of affinity in units of concentration, obtained from inhibition or displacement. Compound `Cc1nn(C)cc1S(=O)(=O)NC(=O)NC/C=C1\CCCc2cnn(Cc3ccc(Cl)cc3Cl)c21` [Compound #184, (E)-N-((2-(1-(2,4-dichlorobenzyl)-1,4,5,6-tetrahydro-7H-indazol-7-ylidene)ethyl)carbamoyl)-1,3-dimethyl-1H-pyrazole-4-sulfonamide] had a Ki of 14 nM.
The same measure, in the same setting: the same measure for `Cc1nc(C)c(S(=O)(=O)NC(=O)NC/C(F)=C2\COCc3cnn(Cc4ccc(Cl)cc4Cl)c32)s1` [Compound #160, (E)-N-((2-(1-(2,4-dichlorobenzyl)-1,4-dihydropyrano[4,3-c]pyrazol-7(6H)-ylidene)-2-fluoroethyl)carbamoyl)-2,4-dimethylthiazole-5-sulfonamide]: 217 nM.
In turn, `O=C(NC/C(F)=C1\COCc2onc(Cc3ccc(Cl)cc3Cl)c21)NS(=O)(=O)c1cc(Cl)c(Cl)s1` [Compound #145, (E)-4,5-dichloro-N-((2-(3-(2,4-dichlorobenzyl)-5H-pyrano[4,3-d]isoxazol-4(7H)-ylidene)-2-fluoroethyl)carbamoyl)thiophene-2-sulfonamide] had a Ki of 6 nM.
In turn, `COc1ccc(S(=O)(=O)NC(=O)NC/C(F)=C2\CCCc3[nH]nc(Cc4ccc(Cl)cc4Cl)c32)cc1Cl` [Compound #179, (Z)-3-chloro-N-((2-(3-(2,4-dichlorobenzyl)-1,5,6,7-tetrahydro-4H-indazol-4-ylidene)-2-fluoroethyl)carbamoyl)-4-methoxybenzenesulfonamide] had a Ki (unit nM) of 0.4 nM.
Compound `Cc1c(S(=O)(=O)NC(=O)NC/C(F)=C2\CCCc3cnn(Cc4ccc(Cl)cc4Cl)c32)cnn1C` [Compound #169, (Z)—N-((2-(1-(2,4-dichlorobenzyl)-1,4,5,6-tetrahydro-7H-indazol-7-ylidene)-2-fluoroethyl)carbamoyl)-1,5-dimethyl-1H-pyrazole-4-sulfonamide] showed a Ki of 83 nM.
The same measure, in the same setting: the figure for `Cc1cc(S(=O)(=O)NC(=O)NC/C=C2\CCCc3cnn(Cc4ccc(Cl)cc4Cl)c32)sc1Cl` [Compound #185, (E)-5-chloro-N-((2-(1-(2,4-dichlorobenzyl)-1,4,5,6-tetrahydro-7H-indazol-7-ylidene)ethyl)carbamoyl)-4-methylthiophene-2-sulfonamide] is 1 nM.
The same measure, in the same setting: the figure for `O=C(NC/C(F)=C1\CCCn2nnc(-c3ccc(C(F)(F)F)cc3)c21)NS(=O)(=O)c1cc(Cl)c(Cl)s1` [Compound #164, (Z)-4,5-dichloro-N-((2-fluoro-2-(3-(4-(trifluoromethyl)phenyl)-6,7-dihydro-[1,2,3]triazolo[1,5-a]pyridin-4(5H)-ylidene)ethyl)carbamoyl)thiophene-2-sulfonamide] is 3200 nM.
The same measure, in the same setting: the same measure for `Cc1cc(S(=O)(=O)NC(=O)NC/C(F)=C2\CCCc3cnn(Cc4ccc(Cl)cc4Cl)c32)n(C)n1` [Compound #193, (Z)—N-((2-(1-(2,4-dichlorobenzyl)-1,4,5,6-tetrahydro-7H-indazol-7-ylidene)-2-fluoroethyl)carbamoyl)-1,3-dimethyl-1H-pyrazole-5-sulfonamide]: 75 nM.
Consider `Cn1nc(Cc2ccc(Cl)cc2Cl)c2c1COC/C2=C(/F)CNC(=O)NS(=O)(=O)c1cc(Cl)c(Cl)s1` [Compound #186, (E)-4,5-dichloro-N-((2-(3-(2,4-dichlorobenzyl)-1-methyl-1,7-dihydropyrano[3,4-c]pyrazol-4(5H)-ylidene)-2-fluoroethyl)carbamoyl)thiophene-2-sulfonamide], for which the Ki is 30 nM.
Compound `Cn1ccc(S(=O)(=O)NC(=O)NC/C=C2\CCCc3cnn(Cc4ccc(Cl)cc4Cl)c32)n1` [Compound #153, (E)-N-((2-(1-(2,4-dichlorobenzyl)-1,4,5,6-tetrahydro-7H-indazol-7-ylidene)ethyl)carbamoyl)-1-methyl-1H-pyrazole-3-sulfonamide] returned a Ki of 22 nM.
For the compound `COCn1nc(Cc2ccc(Cl)cc2Cl)c2c1COC/C2=C(/F)CNC(=O)NS(=O)(=O)c1cc(Cl)c(Cl)s1` [Compound #146, (E)-4,5-dichloro-N-((2-(3-(2,4-dichlorobenzyl)-1-(methoxymethyl)-1,7-dihydropyrano[3,4-c]pyrazol-4(5H)-ylidene)-2-fluoroethyl)carbamoyl)thiophene-2-sulfonamide], the Ki came out at 22 nM.
`Cc1cc(Cl)ccc1Cc1nnn2c1/C(=C(\F)CNC(=O)NS(=O)(=O)c1cc(Cl)c(Cl)s1)CCC2` [Compound #167, (Z)-4,5-dichloro-N-((2-(3-(4-chloro-2-methylbenzyl)-6,7-dihydro-[1,2,3]triazolo[1,5-a]pyridin-4(5H)-ylidene)-2-fluoroethyl)carbamoyl)thiophene-2-sulfonamide]: the Ki was 7 nM.
For the compound `COc1ccc(S(=O)(=O)NC(=O)NC/C(F)=C2\CCCc3cnn(Cc4ccc(Cl)cc4Cl)c32)cc1OC` [Compound #174, (Z)—N-((2-(1-(2,4-dichlorobenzyl)-1,4,5,6-tetrahydro-7H-indazol-7-ylidene)-2-fluoroethyl)carbamoyl)-3,4-dimethoxybenzenesulfonamide], the Ki came out at 149 nM.
`COc1ccc(S(=O)(=O)NC(=O)NC/C(F)=C2\COCc3cnn(Cc4ccc(Cl)cc4Cl)c32)cc1Cl` [Compound #165, (E)-3-chloro-N-((2-(1-(2,4-dichlorobenzyl)-1,4-dihydropyrano[4,3-c]pyrazol-7(6H)-ylidene)-2-fluoroethyl)carbamoyl)-4-methoxybenzenesulfonamide] gave a Ki of 10 nM.
Same read-out and setting: the same measure for `O=C(NC/C(F)=C1\CCCc2cnn(CCc3ccc(C(F)(F)F)cc3)c21)NS(=O)(=O)c1cc(Cl)c(Cl)s1` [Compound #157, (Z)-4,5-dichloro-N-((2-fluoro-2-(1-(4-(trifluoromethyl)phenethyl)-1,4,5,6-tetrahydro-7H-indazol-7-ylidene)ethyl)carbamoyl)thiophene-2-sulfonamide]: 467 nM; for `Cc1nc2cc(S(=O)(=O)NC(=O)NC/C(F)=C3\CCCc4cnn(Cc5ccc(Cl)cc5Cl)c43)ccc2o1` [Compound #183, (Z)—N-((2-(1-(2,4-dichlorobenzyl)-1,4,5,6-tetrahydro-7H-indazol-7-ylidene)-2-fluoroethyl)carbamoyl)-2-methylbenzo[d]oxazole-5-sulfonamide]: 218 nM; for `Cc1cc(S(=O)(=O)NC(=O)NC/C=C2\CCCc3cnn(-c4ccc(Cl)cc4Cl)c32)sc1Cl` [Compound #196, (E)-5-chloro-N-((2-(1-(2,4-dichlorophenyl)-1,4,5,6-tetrahydro-7H-indazol-7-ylidene)ethyl)carbamoyl)-4-methylthiophene-2-sulfonamide]: 1 nM.
Same read-out and setting: the same measure for `O=C(NC/C=C1\CCCc2cnn(Cc3ccc(Cl)cc3Cl)c21)NS(=O)(=O)c1ccc2[nH]c(=O)oc2c1` [Compound #176, (E)-N-((2-(1-(2,4-dichlorobenzyl)-1,4,5,6-tetrahydro-7H-indazol-7-ylidene)ethyl)carbamoyl)-2-oxo-2,3-dihydrobenzo[d]oxazole-6-sulfonamide]: 1 nM.
`Cc1nn(C)cc1S(=O)(=O)NC(=O)NC/C(F)=C1\CCCc2cnn(Cc3ccc(Cl)cc3Cl)c21` [Compound #180, (Z)—N-((2-(1-(2,4-dichlorobenzyl)-1,4,5,6-tetrahydro-7H-indazol-7-ylidene)-2-fluoroethyl)carbamoyl)-1,3-dimethyl-1H-pyrazole-4-sulfonamide] returned a Ki of 164 nM.
Still for that read-out and setting: the same measure for `Cn1ncc2ccc(S(=O)(=O)NC(=O)NC/C(F)=C3\CCCc4cnn(Cc5ccc(Cl)cc5Cl)c43)cc21` [Compound #194, (Z)—N-((2-(1-(2,4-dichlorobenzyl)-1,4,5,6-tetrahydro-7H-indazol-7-ylidene)-2-fluoroethyl)carbamoyl)-1-methyl-1H-indazole-6-sulfonamide]: 25 nM; for `O=C(NC/C(F)=C1\CCCc2cnn(Cc3cnn(-c4ccccc4)c3)c21)NS(=O)(=O)c1cc(Cl)c(Cl)s1` [Compound #191, (Z)-4,5-dichloro-N-((2-fluoro-2-(1-((1-phenyl-1H-pyrazol-4-yl)methyl)-1,4,5,6-tetrahydro-7H-indazol-7-ylidene)ethyl)carbamoyl)thiophene-2-sulfonamide]: 15 nM.
Compound `Cc1cc(S(=O)(=O)NC(=O)NC/C(F)=C2\CCCc3[nH]nc(Cc4ccc(Cl)cc4Cl)c32)sc1Cl` [Compound #187, (Z)-5-chloro-N-((2-(3-(2,4-dichlorobenzyl)-1,5,6,7-tetrahydro-4H-indazol-4-ylidene)-2-fluoroethyl)carbamoyl)-4-methylthiophene-2-sulfonamide] gave a Ki of 1 nM.
